Measurements published in the NIST ThermoML archive (doi:10.1016/j.jct.2014.04.012).
± gives the expanded uncertainty stated by the source.

Assay: xn = mol fraction of the nth substance listed
Details: 101.3 kPa, Liquid, Pycnometric method

Row | SMILES | mass density (293.15 K, x1 = 0.2) [kg/m3] | mass density (293.15 K, x1 = 0.25) [kg/m3] | mass density (303.15 K, x1 = 0.2) [kg/m3] | mass density (303.15 K, x1 = 0.25) [kg/m3] | mass density (313.15 K, x1 = 0.2) [kg/m3] | mass density (313.15 K, x1 = 0.25) [kg/m3] | mass density (323.15 K, x1 = 0.2) [kg/m3] | mass density (323.15 K, x1 = 0.25) [kg/m3] | mass density (293.15 K, x1 = 0.333) [kg/m3] | mass density (303.15 K, x1 = 0.333) [kg/m3] | mass density (313.15 K, x1 = 0.333) [kg/m3] | mass density (323.15 K, x1 = 0.333) [kg/m3] | mass density (293.15 K, x2 = 0.2) [kg/m3] | mass density (293.15 K, x2 = 0.25) [kg/m3] | mass density (303.15 K, x2 = 0.2) [kg/m3] | mass density (303.15 K, x2 = 0.25) [kg/m3] | mass density (313.15 K, x2 = 0.2) [kg/m3] | mass density (313.15 K, x2 = 0.25) [kg/m3] | mass density (323.15 K, x2 = 0.2) [kg/m3] | mass density (323.15 K, x2 = 0.25) [kg/m3]
1 | C[N+](C)(C)CCO.[Cl-] [choline chloride] + OCCOCCO | 1120.3 ± 1 | 1122.4 ± 1 | 1113 ± 1 | 1117.9 ± 1 | 1108.9 ± 1 | 1113 ± 1 | 1103.2 ± 1 | 1108.3 ± 1 | – | – | – | – | – | – | – | – | – | – | – | –
2 | C[N+](C)(C)CCO.[Cl-] [choline chloride] + Oc1ccccc1 | 1091.3 ± 1 | 1092.7 ± 1 | 1085.1 ± 1 | 1087.3 ± 1 | 1081.1 ± 1 | 1083.9 ± 1 | 1076 ± 1 | 1079.5 ± 1 | 1096.6 ± 1 | 1093.8 ± 1 | 1087.2 ± 1 | 1082.5 ± 1 | – | – | – | – | – | – | – | –
3 | OCCOCCOCCO [triethylene glycol] + C[N+](C)(C)CCO.[Cl-] | – | – | – | – | – | – | – | – | – | – | – | – | 1120.3 ± 1.1 | 1133.1 ± 1.1 | 1114.6 ± 1.1 | 1126.2 ± 1.1 | 1108.9 ± 1.1 | 1119.3 ± 1.1 | 1103.2 ± 1.1 | 1112.4 ± 1.1
